Test results from patent US10448639B2, “Fungicidal pyrazoles” (FMC CORPORATION, priority 2009, dated 2019).

How the values were obtained:
[1] = test system: Puccinia recondita f. sp. tritici; experiment: Test I: wheat leaf rust, preventive spray on wheat seedlings, visual disease rating; conditions: wheat leaf rust, 100 = 100% disease control; for Test I disease control rating: sprayed the day before inoculation, 0 = no disease control relative to controls
[2] = test system: Botrytis cinerea; experiment: Test B: tomato Botrytis, preventive spray on tomato seedlings, visual disease rating; conditions: tomato Botrytis, 100 = 100% disease control; for Test B disease control rating: 0 = no disease control relative to controls
[3] = test system: Septoria tritici; experiment: Test G: wheat leaf blotch, preventive spray on wheat seedlings, visual disease rating; conditions: wheat leaf blotch, 100 = 100% disease control; for Test G disease control rating: sprayed the day before inoculation, 0 = no disease control relative to controls
[4] = test system: Alternaria solani; experiment: Test C: tomato early blight, preventive spray on tomato seedlings, visual disease rating; conditions: tomato early blight, 100 = 100% disease control; for Test C disease control rating: 0 = no disease control relative to controls
[5] = test system: Erysiphe graminis f sp. tritici; experiment: Test J: wheat powdery mildew, preventive spray on wheat seedlings, visual disease rating; conditions: wheat powdery mildew, 100 = 100% disease control; for Test J disease control rating: sprayed the day before inoculation, 0 = no disease control relative to controls
[6] = test system: Septoria nodorum; experiment: Test F: Septoria glume blotch, preventive spray on wheat seedlings, visual disease rating; conditions: 100 = 100% disease control; for Test F disease control rating: 0 = no disease control relative to controls
[7] = test system: Puccinia recondita f. sp. tritici; experiment: Test H: wheat leaf rust, curative spray on inoculated wheat seedlings, visual disease rating; conditions: wheat leaf rust, 100 = 100% disease control; for Test H disease control rating: sprayed after inoculation, 0 = no disease control relative to controls
[8] = preventive, 0 = no control relative to controls
[9] = 0 = no control relative to controls
[10] = Septoria glume blotch, 0 = no control relative to controls
[11] = curative, 0 = no control relative to controls
[12] = preventive spray, 0 = no control
[13] = Septoria glume blotch on wheat, preventive spray, 0 = no control

SMILES | Test I rating (% disease control) [1, 8] | Test B rating (% disease control) [2, 9] | Test G rating (% disease control) [3, 9] | Test C rating (% disease control) [4, 9] | Test J rating (% disease control) [5, 9] | Test F rating (% disease control) [6, 10] | Test H rating (% disease control) [7, 11] | also measured
COc1cc(F)c(-c2c(C)nn(C)c2Oc2ccc(Br)c(F)c2)c(F)c1 [compound 153] | 96% | 100% | 100% | 0% | 98% | 73% | 0% | 
COc1cccc(Oc2c(-c3c(F)cc(F)cc3F)c(C)nn2C)c1 [compound 213] | 96% | 97% | 85% | 30% | 100% | 0% | 94% | 
Cc1nn(C)c(Nc2ccc(C#N)cc2F)c1-c1c(F)cc(F)cc1F [compound 120] |  |  |  |  |  |  |  | Test I rating (% disease control) [1, 12]: 99%; Test B rating (% disease control) [2, 12]: 100%; Test G rating (% disease control) [3, 12]: 100%; Test C rating (% disease control) [4, 12]: 99%; Test J rating (% disease control) [5, 12]: 99%; Test F rating (% disease control) [6, 13]: 94%; Test H rating (% disease control) ([7]; curative spray, 0 = no control): 0%
Cc1nn(C)c(Nc2ncc(F)cc2F)c1-c1ccccc1C(F)(F)F [compound 280] | 18% | 99% | 96% | 0% | 87% | 0% | 8% | 
Cc1nn(C)c(Nc2ccc(F)cc2F)c1-c1ccccc1Cl [compound 315] |  |  |  |  |  |  |  | Test I disease control rating [1]: 96%; Test B disease control rating [2]: 99%; Test G disease control rating [3]: 100%; Test C disease control rating [4]: 99%; Test J disease control rating [5]: 100%; Test F disease control rating ([6]; Septoria glume blotch on wheat): 0%; Test H disease control rating [7]: 0%
Cc1nn(C)c(Nc2ccc(F)cc2Cl)c1-c1c(F)cc(C#N)cc1F [compound 112] |  |  |  |  |  |  |  | Test I rating (% disease control) [1, 12]: 100%; Test B rating (% disease control) [2, 12]: 100%; Test G rating (% disease control) [3, 12]: 99%; Test C rating (% disease control) [4, 12]: 98%; Test J rating (% disease control) [5, 12]: 100%; Test F rating (% disease control) [6, 13]: 99%; Test H rating (% disease control) ([7]; curative spray, 0 = no control): 53%
Cc1nn(C)c(Nc2c(F)cc(F)cc2F)c1-c1ccc(F)c(F)c1 [compound 35] |  |  |  |  |  |  |  | Test I rating (% disease control) [1, 12]: 97%; Test B rating (% disease control) [2, 12]: 100%; Test G rating (% disease control) [3, 12]: 95%; Test C rating (% disease control) [4, 12]: 0%; Test J rating (% disease control) [5, 12]: 100%; Test F rating (% disease control) [6, 13]: 0%; Test H rating (% disease control) ([7]; curative spray, 0 = no control): 0%
Cc1nn(C)c(Nc2cncnc2)c1-c1ccc(F)cc1Cl [compound 270] | 0% | 92% | 91% | 86% | 81% | 0% | 8% | 
Cc1nn(C)c(Nc2ccc(F)cc2)c1-c1cccc(F)c1F [compound 205] | 91% | 100% | 99% | 17% | 100% | 0% | 0% | 
Cc1nn(C)c(Nc2ncccc2Cl)c1-c1c(F)cc(F)cc1F [compound 241] | 100% | 99% | 100% | 99% | 100% | 0% | 97% | 
Cc1nn(C)c(Nc2ccc(F)cc2Br)c1-c1c(Cl)cccc1Cl [compound 340] |  |  |  |  |  |  |  | Test I disease control rating [1]: 91%; Test B disease control rating [2]: 99%; Test G disease control rating [3]: 100%; Test C disease control rating [4]: 0%; Test J disease control rating [5]: 100%; Test F disease control rating ([6]; Septoria glume blotch on wheat): 0%; Test H disease control rating [7]: 0%
Cc1nn(C)c(Nc2ccc(F)cc2Br)c1-c1ccc(F)cc1Br [compound 313] |  |  |  |  |  |  |  | Test I disease control rating [1]: 100%; Test B disease control rating [2]: 100%; Test G disease control rating [3]: 100%; Test C disease control rating [4]: 97%; Test J disease control rating [5]: 100%; Test F disease control rating ([6]; Septoria glume blotch on wheat): 51%; Test H disease control rating [7]: 91%
Cc1nn(C)c(Nc2ccc(F)cc2Cl)c1-c1ccc(F)cc1Br [compound 314] |  |  |  |  |  |  |  | Test I disease control rating [1]: 100%; Test B disease control rating [2]: 100%; Test G disease control rating [3]: 100%; Test C disease control rating [4]: 95%; Test J disease control rating [5]: 100%; Test F disease control rating ([6]; Septoria glume blotch on wheat): 0%; Test H disease control rating [7]: 94%
COc1cc(F)c(-c2c(C)nn(C)c2Oc2ccc(C)c(C#N)c2)c(F)c1 [compound 259] | 86% | 98% | 100% | 9% | 97% | 0% | 0% | 
Cc1nn(C)c(Oc2ccc(Cl)c(C#N)c2)c1-c1c(F)cc(F)cc1F [compound 224] | 91% | 99% | 100% | 51% | 100% | 0% | 17% | 
COc1cc(F)c(-c2c(C)nn(C)c2Oc2ccc(Cl)cc2)c(F)c1 [compound 206] | 99% | 99% | 99% | 99% | 100% | 84% | 41% | 
Cc1nn(C)c(Oc2ccc(F)cc2C#N)c1-c1ccc(F)cc1Cl [compound 149] | 100% | 100% | 100% | 98% | 100% | 100% | 99% | 
Cc1nn(C)c(Oc2c(F)cc(C#N)cc2F)c1-c1cccnc1Cl [compound 308] |  |  |  |  |  |  |  | Test I disease control rating [1]: 100%; Test B disease control rating [2]: 81%; Test G disease control rating [3]: 98%; Test C disease control rating [4]: 0%; Test J disease control rating [5]: 0%; Test F disease control rating ([6]; Septoria glume blotch on wheat): 0%; Test H disease control rating [7]: 9%
